Measurements reported in the NIST ThermoML archive (doi:10.1021/je500380x).
Numbers after ± are expanded uncertainties.

Assay: mn = molality of the nth substance listed, in mol/kg
Details: 100 kPa, Liquid; for mass density: Vibrating tube method; for electrical conductivity: Alternating current cell with electrodes; for viscosity: Falling or rolling sphere viscometry

CCC(=O)OCCN1CCNCC1 [2-(piperazin-1-yl)ethyl propionate] + CO
Details	electrical conductivity, 303.15 K [S/m]	electrical conductivity, 308.15 K [S/m]	mass density, 298.15 K [kg/m3]	mass density, 303.15 K [kg/m3]	viscosity, 303.15 K [mPa·s]	viscosity, 308.15 K [mPa·s]
m1 = 0.05	0.136 ± 0.0014	0.139 ± 0.0014	–	785.03 ± 0.15	0.542 ± 0.007	0.512 ± 0.006
m1 = 0.1001	0.224 ± 0.002	0.232 ± 0.002	–	788.13 ± 0.15	0.556 ± 0.007	0.523 ± 0.007
m1 = 0.2006	0.362 ± 0.004	0.374 ± 0.004	–	794.26 ± 0.15	0.589 ± 0.007	0.554 ± 0.007
m1 = 0.3003	0.465 ± 0.005	0.482 ± 0.005	–	800.33 ± 0.15	0.627 ± 0.008	0.588 ± 0.007
m1 = 0.3995	0.547 ± 0.006	0.566 ± 0.006	–	806.4 ± 0.15	0.668 ± 0.008	0.625 ± 0.008
m1 = 0.5005	0.615 ± 0.006	0.641 ± 0.006	817.14 ± 0.15	812.5 ± 0.15	0.713 ± 0.009	0.665 ± 0.008
m1 = 0.6006	0.672 ± 0.007	0.701 ± 0.007	823.36 ± 0.14	818.75 ± 0.15	0.764 ± 0.009	0.711 ± 0.009
m1 = 0.7007	0.715 ± 0.007	0.748 ± 0.008	829.58 ± 0.14	824.99 ± 0.14	0.816 ± 0.01	0.758 ± 0.009
m1 = 0.8007	0.756 ± 0.008	0.792 ± 0.008	835.68 ± 0.14	831.13 ± 0.14	0.881 ± 0.011	0.817 ± 0.01
m1 = 0.9008	0.785 ± 0.008	0.824 ± 0.008	841.84 ± 0.14	837.3 ± 0.14	0.95 ± 0.012	0.879 ± 0.011
m1 = 1.001	0.813 ± 0.008	0.858 ± 0.009	847.87 ± 0.14	843.36 ± 0.14	1.028 ± 0.013	–
m1 = 1.2	0.839 ± 0.008	0.883 ± 0.009	860.2 ± 0.14	855.75 ± 0.14	1.194 ± 0.015	–
m1 = 1.401	0.849 ± 0.009	0.892 ± 0.009	873.21 ± 0.13	868.82 ± 0.13	1.425 ± 0.018	–
m1 = 1.6	0.837 ± 0.008	0.889 ± 0.009	885.7 ± 0.13	881.35 ± 0.13	1.713 ± 0.021	–
m1 = 1.801	0.813 ± 0.008	0.862 ± 0.009	898.85 ± 0.13	894.62 ± 0.13	2.093 ± 0.026	–
m1 = 2	0.766 ± 0.008	0.818 ± 0.008	911.8 ± 0.13	907.8 ± 0.13	2.606 ± 0.032	–
m1 = 2.203	0.712 ± 0.007	0.766 ± 0.008	925.82 ± 0.12	921.66 ± 0.12	3.257 ± 0.04	–
m1 = 2.403	0.648 ± 0.007	0.703 ± 0.007	938.76 ± 0.12	934.65 ± 0.12	4.233 ± 0.052	–
m1 = 2.603	0.571 ± 0.006	0.626 ± 0.006	951.62 ± 0.12	947.56 ± 0.12	5.512 ± 0.068	–
m1 = 2.803	0.505 ± 0.005	0.559 ± 0.006	964.72 ± 0.12	960.73 ± 0.12	7.332 ± 0.091	–
m1 = 3.001	–	–	978.3 ± 0.11	974.37 ± 0.12	10.32 ± 0.13	–
m1 = 3.006	0.439 ± 0.004	0.483 ± 0.005	–	–	–	–
